Data as given in PMC3249654 (The Open Virology Journal, 2011).
Where “and” joins values, the source holds several entries; their conditions need not be identical. Equal values may be shown once. Entries after “also recorded” stand apart in the source; their conditions may differ. Read-outs that look alike come from different tables or passages of the source.

What was measured:
[1] = tested on: NA enzyme activity of influenza A(H1N1) viruses; assay type: biochemical, influenza A(H1N1) virus
influenza virus = settings: human, in vivo; cited from earlier work
[2] = tested on: M2 of influenza A(H1N1) viruses

Compound: CCOC(=O)C1=C[C@@H](OC(CC)CC)[C@H](NC(C)=O)[C@@H](N)C1 [oseltamivir]
- proportion of viruses resistant against oseltamivir, phenotypic assessment [1]: 29%
- oseltamivir-resistance emerged in treated children (influenza virus): 18% and 16%

Compound: CC(=O)N[C@H]1[C@H]([C@H](O)[C@H](O)CO)OC(C(=O)O)=C[C@@H]1N=C(N)N [zanamivir]
- susceptibility of oseltamivir resistant A(H1N1) viruses to zanamivir [1]: None of influenza A(H1N1) oseltamivir resistant viruses tested was resistant; also recorded: sensitive; also recorded: still susceptible
- IC50 ([1]; read-out: baseline zanamivir IC50-value (mean±SD)): 1.05 nM and 0.98 nM
- IC50 ([1]; read-out: mean IC50 ± SD): 0.87 ± 0.22 nM

Compound: NC12CC3CC(CC(C3)C1)C2 [amantadine]
- susceptibility of oseltamivir resistant A(H1N1) viruses to amantadine / M2I [2]: still susceptible
